Reference: patent US9174969B2, “Indoline scaffold SHP-2 inhibitors and cancer treatment method” (UNIVERSITY OF SOUTH FLORIDA, priority 2008, dated 2015)

Biological target: T1, Shp2 (Homo sapiens (Human), UniProt Q06124)
Assay: in vitro phosphotyrosine phosphatase activity (DiFMUP) assay
Type: biochemical
Conditions: mean ± spread over n tests
Procedure: All reagents were purchased from commercial suppliers and used without further purification. Melting points were determined using a Barnstead international melting point apparatus and remain uncorrected. ^1H NMR spectra were recorded on a Varian Mercury 400 MHz spectrometer with CDCl3 or DMSO-d6 as the solvent. ^13C NMR spectra are recorded at 100 MHz. All coupling constants are measured in Hertz (Hz) and the chemical shifts (δH and δC) are quoted in parts per million (ppm) relative to TMS (δ0), which was used as the internal standard. High resolution mass spectroscopy was carried out on an Agilent 6210 LC/MS (ESI-TOF). Microwave reactions were performed in CEM 908005 model and Biotage initiator 8 machines. HPLC analysis was performed using a JASCO HPLC system equipped with a PU-2089 Plus quaternary gradient pump and a UV-2075 Plus UV-VIS detector, using an Alitech Kromasil C-18 column (150×4.6 mm, 5 μm). Thin layer chromatography was performed using silica gel 60 F254 plates (Fisher), with observation under UV when necessary. Anhydrous solvents (acetonitrile, dimethyl formamide, ethanol, isopropanol, methanol and tetrahydrofuran) were used as purchased from Aldrich. HPLC grade solvents (methanol, acetonitrile and water) were purchased from Burdick and Jackson for HPLC and mass analysis.
Target sequence in this assay (Q06124 whole entry): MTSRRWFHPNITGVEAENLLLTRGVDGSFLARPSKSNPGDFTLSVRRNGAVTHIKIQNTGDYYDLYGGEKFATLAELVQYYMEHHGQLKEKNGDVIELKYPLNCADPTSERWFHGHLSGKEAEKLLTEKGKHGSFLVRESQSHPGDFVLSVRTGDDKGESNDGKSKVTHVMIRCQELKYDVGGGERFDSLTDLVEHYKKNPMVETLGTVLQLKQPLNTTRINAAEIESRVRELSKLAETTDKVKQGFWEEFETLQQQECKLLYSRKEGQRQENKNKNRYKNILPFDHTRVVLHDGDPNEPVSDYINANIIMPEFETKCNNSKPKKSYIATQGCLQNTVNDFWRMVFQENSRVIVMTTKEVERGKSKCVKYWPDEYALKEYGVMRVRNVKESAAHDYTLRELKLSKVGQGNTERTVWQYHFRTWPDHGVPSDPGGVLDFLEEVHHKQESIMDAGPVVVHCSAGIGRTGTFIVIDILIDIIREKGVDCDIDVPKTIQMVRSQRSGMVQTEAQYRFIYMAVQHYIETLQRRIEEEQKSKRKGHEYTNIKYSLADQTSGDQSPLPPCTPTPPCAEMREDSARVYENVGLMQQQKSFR

| SMILES | IC50 |
| --- | --- |
| O=C(O)c1cccc(NC(=O)N2CCc3cc(S(=O)(=O)N4CCN(c5cccc(Cl)c5)CC4)ccc32)c1 [JHE-02-020B, 3-(5-(4-(3-Chlorophenyl)piperazin-1-ylsulfonyl)indoline-1-carboxamido)benzoic acid] | 3 ± 0.8 µM |
| CCC(C)C(NC(=O)N1CCc2cc(S(=O)(=O)N3CCN(c4cccc(Cl)c4)CC3)ccc21)C(=O)OC (stereo not drawn) [JHE-02-029A, Methyl 2-(5-(4-(3-chlorophenyl)piperazin-1-ylsulfonyl)indoline-1-carboxamido)-3-methylpentanoate] | 12.7 ± 0.7 µM |
| O=C(Nc1cccc(Cl)c1)N1CCc2cc(S(=O)(=O)N3CCN(c4cccc(Cl)c4)CC3)ccc21 [JHE-02-032A, N-(3-Chlorophenyl)-5-(4-(3-chlorophenyl)piperazin-1-ylsulfonyl)indoline-1-carboxamide] | 8.3 ± 3.4 µM |
| COc1cccc(NC(=O)N2CCc3cc(S(=O)(=O)N4CCN(c5cccc(Cl)c5)CC4)ccc32)c1 [JHE-02-032B, 5-(4-(3-Chlorophenyl)piperazin-1-ylsulfonyl)-N-(3-methoxyphenyl)indoline-1-carboxamide] | 9.9 ± 3.5 µM |
| CCCC(=O)N1CCc2cc(S(=O)(=O)N3CCN(c4cccc(Cl)c4)CC3)ccc21 [JHE-02-033A, 1-(5-(4-(3-Chlorophenyl)piperazin-1-ylsulfonyl)indolin-1-yl)butan-1-one] | 7.8 ± 2.1 µM |
| CC(C)CC(=O)N1CCc2cc(S(=O)(=O)N3CCN(c4cccc(Cl)c4)CC3)ccc21 [JHE-02-033B, 1-(5-(4-(3-Chlorophenyl)piperazin-1-ylsulfonyl)indolin-1-yl)-3-methylbutan-1-one] | 20.7 ± 10.8 µM |
| COc1cccc(C(=O)N2CCc3cc(S(=O)(=O)N4CCN(c5cccc(Cl)c5)CC4)ccc32)c1 [JHE-02-035A, (5-(4-(3-chlorophenyl)piperazin-1-ylsulfonyl)indolin-1-yl)(3-methoxyphenyl)methanone] | 8.1 ± 0.8 µM |
| CCC(C)C(NC(=O)N1CCc2cc(S(=O)(=O)N3CCN(c4cccc(Cl)c4)CC3)ccc21)C(=O)O (stereo not drawn) [JHE-02-038, 2-(5-(4-(3-Chlorophenyl)piperazin-1-ylsulfonyl)indoline-1-carboxamido)-3-methylpentanoic acid] | 15.5 ± 7.5 µM |
| O=C(O)CC[C@H](NC(=O)N1CCc2cc(S(=O)(=O)N3CCN(c4cccc(Cl)c4)CC3)ccc21)C(=O)O [JHE-02-052, (S)-2-(5-(4-(3-Chlorophenyl)piperazin-1-ylsulfonyl)indoline-1-carboxamido)pentanedioic acid] | 37.6 ± 13.8 µM |
| O=C(Cc1ccc(Cl)cc1)N1CCc2cc(S(=O)(=O)N3CCN(c4cccc(Cl)c4)CC3)ccc21 [JHE-02-063B, 2-(4-Chlorophenyl)-1-(5-(4-(3-chlorophenyl)piperazin-1-ylsulfonyl)indolin-1-yl)ethanone] | 8 ± 1.9 µM |
| O=C(Nc1ccc(Cl)cc1)N1CCc2cc(S(=O)(=O)N3CCN(c4cccc(Cl)c4)CC3)ccc21 [JHE-02-065A, N-(4-Chlorophenyl)-5-(4-(3-chlorophenyl)piperazin-1-ylsulfonyl)indoline-1-carboxamide] | 19.1 ± 5.1 µM |
| O=C(Nc1ccccc1Cl)N1CCc2cc(S(=O)(=O)N3CCN(c4cccc(Cl)c4)CC3)ccc21 [JHE-02-065B, N-(2-Chlorophenyl)-5-(4-(3-chlorophenyl)piperazin-1-ylsulfonyl)indoline-1-carboxamide] | 3.2 ± 0.5 µM |
| O=C(O)C(O)CC(=O)N1CCc2cc(S(=O)(=O)N3CCN(c4cccc(Cl)c4)CC3)ccc21 (stereo not drawn) [JHE-02-067] | 1.3 ± 0.5 µM |
| O=C(Nc1ccc(Cl)c(Cl)c1)N1CCc2cc(S(=O)(=O)N3CCN(c4cccc(Cl)c4)CC3)ccc21 [JHE-02-068A, 5-(4-(3-Chlorophenyl)piperazin-1-ylsulfonyl)-N-(3,4-dichlorophenyl)indoline-1-carboxamide] | 5.7 ± 2.5 µM |
| CC(C)c1ccc(NC(=O)N2CCc3cc(S(=O)(=O)N4CCN(c5cccc(Cl)c5)CC4)ccc32)cc1 [JHE-02-068B, 5-(4-(3-Chlorophenyl)piperazin-1-ylsulfonyl)-N-(4-isopropylphenyl)indoline-1-carboxamide] | 4.1 ± 1 µM |
| CC1Cc2cc(S(=O)(=O)N3CCN(c4cccc(Cl)c4)CC3)ccc2N1C(=O)C(F)(F)F (stereo not drawn) [JHE-02-117, 1-(5-(4-(3-chlorophenyl)piperazin-1-ylsulfonyl)-2-methylindolin-1-yl)-2,2,2-trifluoroethanone] | 47 ± 17.7 µM |

| SMILES | IC50 |
| --- | --- |
| CC1Cc2cc(S(=O)(=O)N3CCN(c4cccc(Cl)c4)CC3)ccc2N1C(=O)CCC(=O)O (stereo not drawn) [JHE-02-119, 4-(5-(4-(3-Chlorophenyl)piperazin-1-ylsulfonyl)-2-methylindolin-1-yl)-4-oxobutanoic acid] | 2.5 ± 0.5 µM |
| O=C(O)CCC(=O)N1CCc2cc(S(=O)(=O)N3CCN(c4ccc(F)cc4)CC3)ccc21 [XW2-011B, 4-(5-(4-(4-Fluorophenyl)piperazin-1-ylsulfonyl)indolin-1-yl)-4-oxobutanoic acid] | 31.9 ± 10 µM |
| O=C(O)CCC(=O)N1CCc2cc(S(=O)(=O)N3CCN(c4cccc(C(F)(F)F)c4)CC3)ccc21 [XW2-031B, 4-oxo-4-(5-(4-(3-(trifluoromethyl)phenyl)piperazin-1-ylsulfonyl)indolin-1-yl)butanoic acid] | 11.3 ± 3.1 µM |
| O=C(O)CCC(=O)N1CCc2cc(S(=O)(=O)N3CCN(c4ccc(Cl)c(Cl)c4)CC3)ccc21 [XW2-036, 4-(5-(4-(3,4-Dichlorophenyl)piperazin-1-ylsulfonyl)indolin-1-yl)-4-oxobutanoic acid] | 4.6 ± 2.4 µM |
| O=C(O)CCC(=O)N1CCc2cc(S(=O)(=O)N3CCN(c4ccccc4)CC3)ccc21 [XW2-038A, 4-oxo-4-(5-(4-Phenylpiperazin-1-ylsulfonyl)indolin-1-yl)butanoic acid] | 14.8 ± 7.3 µM |
| O=C(O)CCC(=O)N1CCc2cc(S(=O)(=O)N3CCN(c4ccccc4F)CC3)ccc21 [XW2-038D, 4-(5-(4-(2-Fluorophenyl)piperazin-1-ylsulfonyl)indolin-1-yl)-4-oxobutanoic acid] | 34.6 ± 12.6 µM |
| COc1ccc(N2CCN(S(=O)(=O)c3ccc4c(c3)CCN4C(=O)CCC(=O)O)CC2)cc1 [XW2-038E, 4-(5-(4-(4-Methoxyphenyl)piperazin-1-ylsulfonyl)indolin-1-yl)-4-oxobutanoic acid] | 9 ± 5.9 µM |
| COc1cccc(N2CCN(S(=O)(=O)c3ccc4c(c3)CCN4C(=O)CCC(=O)O)CC2)c1 [XW2-038F, 4-(5-(4-(3-Methoxyphenyl)piperazin-1-ylsulfonyl)indolin-1-yl)-4-oxobutanoic acid] | 4.7 ± 4.4 µM |
| O=C(O)CCC(=O)N1CCc2cc(S(=O)(=O)N3CCN(c4cccc(Cl)c4Cl)CC3)ccc21 [XW2-038G, 4-(5-(4-(2,3-Dichlorophenyl)piperazin-1-ylsulfonyl)indolin-1-yl)-4-oxobutanoic acid] | 144 ± 89.5 µM |
| O=C(O)CCC(=O)N1CCc2cc(S(=O)(=O)N3CCN(c4cccc(Cl)c4)CC3)ccc21 [XW2-038H, 4-(5-(4-(3-Chlorophenyl)piperazin-1-ylsulfonyl)indolin-1-yl)-4-oxobutanoic acid] | 0.7 ± 0.3 µM |
| O=C(O)CCC(=O)N1CCc2cc(S(=O)(=O)N3CCN(c4cc(C(F)(F)F)cc(C(F)(F)F)c4)CC3)ccc21 [XW2-119, 4-(5-(4-(3,5-Bis(trifluoromethyl)phenyl)piperazin-1-ylsulfonyl)indolin-1-yl)-4-oxobutanoic acid] | 9.1 ± 1.6 µM |
| O=C(O)CCC(=O)N1CCc2cc(S(=O)(=O)N3CCN(c4cccc(F)c4)CC3)ccc21 [XW2-124A, 4-(5-(4-(3-Fluorophenyl)piperazin-1-ylsulfonyl)indolin-1-yl)-4-oxobutanoic acid] | 13.2 ± 3.6 µM |
| O=C(O)CCC(=O)N1CCc2cc(S(=O)(=O)N3CCN(c4cc(Cl)cc(Cl)c4)CC3)ccc21 [XW2-124B, 4-(5-(4-(3,5-Dichlorophenyl)piperazin-1-ylsulfonyl)indolin-1-yl)-4-oxobutanoic acid] | 4.5 ± 1.2 µM |
| Cc1ccc(Cl)cc1N1CCN(S(=O)(=O)c2ccc3c(c2)CCN3C(=O)CCC(=O)O)CC1 [XW2-125B, 4-(5-(4-(5-Chloro-2-methylphenyl)piperazin-1-ylsulfonyl)indolin-1-yl)-4-oxobutanoic acid] | 1.5 µM |
| Cc1ccc(N2CCN(S(=O)(=O)c3ccc4c(c3)CCN4C(=O)CCC(=O)O)CC2)cc1Cl [XW3-006, 4-(5-(4-(3-Chloro-4-methylphenyl)piperazin-1-ylsulfonyl)indolin-1-yl)-4-oxobutanoic acid] | 16.6 ± 3.6 µM |

Biological target: T1, Shp2
Assay: not given
Conditions: background statement; cited from earlier work
Target sequence in this assay (Q06124 whole entry, species assumed): as the sequence (Q06124 whole entry) above

| SMILES | inhibition of Shp2 |
| --- | --- |
| CCOc1ccc(NC(=O)CN2C(=O)/C(=C3\SC(=S)C(CCS(=O)(=O)O)C3=O)c3ccccc32)cc1 (stereo not drawn) [CDL 4340-0580] | ability to inhibit Shp2 |

Biological target: Shp1 (Homo sapiens (Human), UniProt P29350)
Assay: not given
Conditions: background statement, non-selective; cited from earlier work

Chain of Shp1 (P29350 whole entry): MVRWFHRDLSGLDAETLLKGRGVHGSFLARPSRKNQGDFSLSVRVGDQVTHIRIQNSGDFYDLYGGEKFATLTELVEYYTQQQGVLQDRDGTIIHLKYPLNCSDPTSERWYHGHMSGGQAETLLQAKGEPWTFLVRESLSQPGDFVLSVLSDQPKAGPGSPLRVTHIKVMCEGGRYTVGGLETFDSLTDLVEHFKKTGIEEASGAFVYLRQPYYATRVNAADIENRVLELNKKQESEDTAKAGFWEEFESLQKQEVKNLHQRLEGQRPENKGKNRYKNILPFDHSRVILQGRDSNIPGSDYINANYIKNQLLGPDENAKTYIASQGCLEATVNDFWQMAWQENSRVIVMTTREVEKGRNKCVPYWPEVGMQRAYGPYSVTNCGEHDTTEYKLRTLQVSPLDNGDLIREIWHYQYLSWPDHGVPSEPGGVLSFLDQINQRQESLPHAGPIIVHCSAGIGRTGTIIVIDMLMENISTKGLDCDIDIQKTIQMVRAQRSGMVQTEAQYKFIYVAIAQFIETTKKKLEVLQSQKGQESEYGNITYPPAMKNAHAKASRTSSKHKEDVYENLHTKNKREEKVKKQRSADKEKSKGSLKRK

| SMILES | inhibition of Shp1 |
| --- | --- |
| CCOc1ccc(NC(=O)CN2C(=O)/C(=C3\SC(=S)C(CCS(=O)(=O)O)C3=O)c3ccccc32)cc1 (stereo not drawn) [CDL 4340-0580] | also inhibit tumor suppressor Shp1 |
